{"source": "paper PMC5218480", "about": "(PLoS ONE, 2017)", "system": "MV-4-11 cells", "test": "Gene expression microarray analysis (Affymetrix PrimeView) and GSEA", "type": "cell-based, human", "parameters": "RFU PODN (11730768_x_at) / Fold change /veh PODN (11730768_x_at) / RFU LINC00158 (11744669_a_at) / Fold change /veh LINC00158 (11744669_a_at) / RFU DUSP10 (11751237_a_at) / Fold change /veh DUSP10 (11751237_a_at) / RFU ID3 (11757404_x_at) / Fold change /veh ID3 (11757404_x_at) / RFU PLEKHG5 (11737974_s_at) / Fold change /veh PLEKHG5 (11737974_s_at) / RFU LRRC4B (11730491_at) / Fold change /veh LRRC4B (11730491_at) / RFU GIMAP4 (11747438_a_at) / Fold change /veh GIMAP4 (11747438_a_at) / RFU KRT8 (11758183_x_at) / Fold change /veh KRT8 (11758183_x_at) / RFU CNN1 (11734310_a_at) / Fold change /veh CNN1 (11734310_a_at) / RFU VPS37D (11726825_at) / Fold change /veh VPS37D (11726825_at) / RFU C10orf10 (11716522_x_at) / Fold change /veh C10orf10 (11716522_x_at) / RFU KIR2DL2 /// KIR2DL4 /// KIR2DL5A /// KIR2DL5B /// KIR2DS1 /// KIR2DS2 /// KIR2DS3 /// KIR2DS4 /// KIR3DL3 /// KIR3DL3 /// KIR3DS1 (11738374_at) / Fold change /veh KIR2DL2 /// KIR2DL4 /// KIR2DL5A /// KIR2DL5B /// KIR2DS1 /// KIR2DS2 /// KIR2DS3 /// KIR2DS4 /// KIR3DL3 /// KIR3DL3 /// KIR3DS1 (11738374_at) / RFU C1QL1 (11718748_at) / Fold change /veh C1QL1 (11718748_at) / RFU TMPRSS4 (11747572_a_at) / Fold change /veh TMPRSS4 (11747572_a_at) / RFU HAMP (11756126_x_at) / Fold change /veh HAMP (11756126_x_at) / RFU RNFT2 (11725882_a_at) / Fold change /veh RNFT2 (11725882_a_at) / RFU NR4A2 (11747474_a_at) / Fold change /veh NR4A2 (11747474_a_at) / RFU ABCC12 (11746883_a_at) / Fold change /veh ABCC12 (11746883_a_at) / RFU TMEM136 (11760407_x_at) / Fold change /veh TMEM136 (11760407_x_at) / RFU CLDN22 /// WWC2 (11732394_at) / Fold change /veh CLDN22 /// WWC2 (11732394_at) / RFU HLA-DPB1 (11760878_x_at) / Fold change /veh HLA-DPB1 (11760878_x_at) / RFU SPINT1 (11716480_a_at) / Fold change /veh SPINT1 (11716480_a_at) / RFU GAP43 (11754022_s_at) / Fold change /veh GAP43 (11754022_s_at) / RFU A4GNT (11735810_at) / Fold change /veh A4GNT (11735810_at) / RFU PRB3 (11715151_x_at) / Fold change /veh PRB3 (11715151_x_at) / RFU TUBB4B (11761932_at) / Fold change /veh TUBB4B (11761932_at) / RFU CAPN14 (11732068_a_at) / Fold change /veh CAPN14 (11732068_a_at) / RFU TMCC2 (11721928_a_at) / Fold change /veh TMCC2 (11721928_a_at) / RFU IRGQ (11745062_a_at) / Fold change /veh IRGQ (11745062_a_at) / RFU FAM174B (11720279_a_at) / Fold change /veh FAM174B (11720279_a_at) / RFU TMPRSS4 (11748680_a_at) / Fold change /veh TMPRSS4 (11748680_a_at) / RFU FAM212B (11763350_a_at) / Fold change /veh FAM212B (11763350_a_at) / RFU PLEKHG5 (11743358_a_at) / Fold change /veh PLEKHG5 (11743358_a_at) / RFU ZSCAN30 (11745921_a_at) / Fold change /veh ZSCAN30 (11745921_a_at) / RFU CMKLR1 (11741424_a_at) / Fold change /veh CMKLR1 (11741424_a_at) / RFU LOC101060620 /// MAPK8IP1 (11723275_at) / Fold change /veh LOC101060620 /// MAPK8IP1 (11723275_at) / RFU SPTSSB (11747773_x_at) / Fold change /veh SPTSSB (11747773_x_at) / RFU PRSS12 (11739890_at) / Fold change /veh PRSS12 (11739890_at) / RFU BIN1 (11741810_x_at) / Fold change /veh BIN1 (11741810_x_at) / RFU WNT11 (11732464_a_at) / Fold change /veh WNT11 (11732464_a_at) / RFU C10orf10 (11716521_a_at) / Fold change /veh C10orf10 (11716521_a_at) / RFU C5orf56 (11738089_at) / Fold change /veh C5orf56 (11738089_at) / RFU CYB561 (11721691_x_at) / Fold change /veh CYB561 (11721691_x_at) / RFU ANKRD19P (11752326_a_at) / Fold change /veh ANKRD19P (11752326_a_at) / RFU OR2T12 /// OR2T33 /// OR2T8 (11738714_s_at) / Fold change /veh OR2T12 /// OR2T33 /// OR2T8 (11738714_s_at) / RFU VCAN (11748164_a_at) / Fold change /veh VCAN (11748164_a_at) / RFU JSRP1 (11732532_at) / Fold change /veh JSRP1 (11732532_at) / RFU KRTAP10-11 (11738290_x_at) / Fold change /veh KRTAP10-11 (11738290_x_at) / RFU MYO3A (11730013_a_at) / Fold change /veh MYO3A (11730013_a_at) / RFU EBF3 (11725865_a_at) / Fold change /veh EBF3 (11725865_a_at) / RFU CAMK2N1 (11719241_x_at) / Fold change /veh CAMK2N1 (11719241_x_at) / RFU C5orf56 (11738088_a_at) / Fold change /veh C5orf56 (11738088_a_at) / RFU OLFML3 (11715873_a_at) / Fold change /veh OLFML3 (11715873_a_at) / RFU LOC100653217 /// NTM (11731650_a_at) / Fold change /veh LOC100653217 /// NTM (11731650_a_at) / RFU MAPK11 (11762145_a_at) / Fold change /veh MAPK11 (11762145_a_at) / RFU FIZ1 (11724087_x_at) / Fold change /veh FIZ1 (11724087_x_at) / RFU OASL (11726364_x_at) / Fold change /veh OASL (11726364_x_at) / RFU SOX15 (11748057_x_at) / Fold change /veh SOX15 (11748057_x_at) / RFU CD79A (11719716_a_at) / Fold change /veh CD79A (11719716_a_at) / RFU HIST1H1D (11736915_at) / Fold change /veh HIST1H1D (11736915_at) / RFU CASKIN2 (11723855_a_at) / Fold change /veh CASKIN2 (11723855_a_at) / RFU LOC730098 (11760151_x_at) / Fold change /veh LOC730098 (11760151_x_at) / RFU OR4N2 (11742367_at) / Fold change /veh OR4N2 (11742367_at) / RFU PRRT2 (11749266_a_at) / Fold change /veh PRRT2 (11749266_a_at) / RFU SNX32 (11753110_a_at) / Fold change /veh SNX32 (11753110_a_at) / RFU CDHR5 (11726645_a_at) / Fold change /veh CDHR5 (11726645_a_at) / RFU RCAN1 (11760418_a_at) / Fold change /veh RCAN1 (11760418_a_at) / RFU FAM167A (11723789_a_at) / Fold change /veh FAM167A (11723789_a_at) / RFU FAM26E (11764081_at) / Fold change /veh FAM26E (11764081_at) / RFU ISYNA1 (11749810_s_at) / Fold change /veh ISYNA1 (11749810_s_at) / RFU ACY1 (11761880_at) / Fold change /veh ACY1 (11761880_at) / RFU 11764098_at / Fold change /veh 11764098_at / RFU SAMD14 (11745864_x_at) / Fold change /veh SAMD14 (11745864_x_at) / RFU NPB (11741838_a_at) / Fold change /veh NPB (11741838_a_at) / RFU TMPRSS6 (11731388_a_at) / Fold change /veh TMPRSS6 (11731388_a_at) / RFU KRTAP10-2 (11738614_at) / Fold change /veh KRTAP10-2 (11738614_at) / RFU ARHGAP8 /// PRR5-ARHGAP8 (11727945_x_at) / Fold change /veh ARHGAP8 /// PRR5-ARHGAP8 (11727945_x_at) / RFU KRTAP5-7 /// NADSYN1 (11734609_at) / Fold change /veh KRTAP5-7 /// NADSYN1 (11734609_at) / RFU RASL12 (11751679_a_at) / Fold change /veh RASL12 (11751679_a_at) / RFU CDKN2B (11736163_a_at) / Fold change /veh CDKN2B (11736163_a_at) / RFU PRF1 (11729649_at) / Fold change /veh PRF1 (11729649_at) / RFU, ZNF638 /// ZNF638-IT1 / Fold change vs veh, ZNF638 /// ZNF638-IT1 / RFU, PANK3 / Fold change vs veh, PANK3 / RFU, SH3YL1 / Fold change vs veh, SH3YL1 / RFU, ZEB2 / Fold change vs veh, ZEB2 / RFU, NRIP1 / Fold change vs veh, NRIP1 / RFU, PTTG1IP / Fold change vs veh, PTTG1IP / RFU, CAPN2 / Fold change vs veh, CAPN2 / RFU, MED14 / Fold change vs veh, MED14 / RFU, SNORA58 / Fold change vs veh, SNORA58 / RFU, C1orf63 / Fold change vs veh, C1orf63 / RFU, LRRFIP1 / Fold change vs veh, LRRFIP1 / RFU, NDUFAF7 / Fold change vs veh, NDUFAF7 / RFU, SLC12A2 / Fold change vs veh, SLC12A2 / RFU, IBTK / Fold change vs veh, IBTK / RFU, ESF1 / Fold change vs veh, ESF1 / Fold change vs veh, TMEM50B / RFU, TAOK1 / Fold change vs veh, TAOK1 / RFU, ACBD3 / Fold change vs veh, ACBD3 / RFU, TMA16 / Fold change vs veh, TMA16 / RFU, RWDD3 / Fold change vs veh, RWDD3 / RFU, BCAT1 / Fold change vs veh, BCAT1 / RFU, EDEM3 / Fold change vs veh, EDEM3 / RFU, TMEM33 / Fold change vs veh, TMEM33 / RFU, WDR75 / Fold change vs veh, WDR75 / RFU, AHCTF1 / Fold change vs veh, AHCTF1 / RFU, TFRC / Fold change vs veh, TFRC / RFU, ZDHHC17 / Fold change vs veh, ZDHHC17 / RFU, NOM1 / Fold change vs veh, NOM1 / RFU, ARL8B / Fold change vs veh, ARL8B / RFU, ZBTB11 / Fold change vs veh, ZBTB11 / RFU, TAMM41 / Fold change vs veh, TAMM41 / RFU, KIAA1704 /// LOC100996395 / Fold change vs veh, KIAA1704 /// LOC100996395 / RFU, ING1 / Fold change vs veh, ING1 / RFU, TRMT61B / Fold change vs veh, TRMT61B / RFU, FUBP3 / Fold change vs veh, FUBP3 / RFU, TP53 / Fold change vs veh, TP53 / RFU, TNKS2 / Fold change vs veh, TNKS2 / RFU, ZFP14 / Fold change vs veh, ZFP14 / RFU, ACTR2 / Fold change vs veh, ACTR2 / RFU, PPP3R1 / Fold change vs veh, PPP3R1 / RFU, PIK3R1 / Fold change vs veh, PIK3R1 / RFU, HNRNPA1 / Fold change vs veh, HNRNPA1 / RFU, RNF170 / Fold change vs veh, RNF170 / RFU, ZNF28 / Fold change vs veh, ZNF28 / RFU, RNGTT / Fold change vs veh, RNGTT / RFU, OGT / Fold change vs veh, OGT / RFU, BRD1 / Fold change vs veh, BRD1 / RFU, MARS / Fold change vs veh, MARS / RFU, ZNF655 / Fold change vs veh, ZNF655 / RFU, FAHD1 / Fold change vs veh, FAHD1 / RFU, BDP1 / Fold change vs veh, BDP1 / RFU, LRRCC1 / Fold change vs veh, LRRCC1 / RFU, ARID1A / Fold change vs veh, ARID1A / RFU, ZNF146 / Fold change vs veh, ZNF146 / RFU, ZNF330 / Fold change vs veh, ZNF330 / RFU, GPN3 / Fold change vs veh, GPN3 / RFU, C9orf123 / Fold change vs veh, C9orf123 / RFU, N4BP2L2 / Fold change vs veh, N4BP2L2 / RFU, ARFIP1 / Fold change vs veh, ARFIP1 / RFU, FAM179B / Fold change vs veh, FAM179B / RFU, BCL10 / Fold change vs veh, BCL10 / RFU, UHRF1BP1L / Fold change vs veh, UHRF1BP1L / RFU, BET1 / Fold change vs veh, BET1 / RFU, CNOT2 / Fold change vs veh, CNOT2 / RFU, ZNF268 / Fold change vs veh, ZNF268 / Fold change vs veh, ZNF507 / RFU, DGCR2 / Fold change vs veh, DGCR2 / RFU, WDSUB1 / Fold change vs veh, WDSUB1 / Fold change vs veh, HSP90B1 /// MIR3652 / RFU, ADSS / Fold change vs veh, ADSS / RFU, GK / Fold change vs veh, GK / RFU, ZNF148 / Fold change vs veh, ZNF148 / RFU, TAF9 / Fold change vs veh, TAF9 / RFU, SLC1A5 / Fold change vs veh, SLC1A5 / RFU, SLMO2 / Fold change vs veh, SLMO2 / RFU, ABCC4 / Fold change vs veh, ABCC4 / RFU, LOC101060439 /// RAP1B / Fold change vs veh, LOC101060439 /// RAP1B / RFU, RFX7 / Fold change vs veh, RFX7 / RFU, GTPBP10 / Fold change vs veh, GTPBP10 / RFU, CNEP1R1 / Fold change vs veh, CNEP1R1 / RFU, BIVM-ERCC5 /// ERCC5 / Fold change vs veh, BIVM-ERCC5 /// ERCC5 / RFU, ILF3 / Fold change vs veh, ILF3 / RFU 11762660_at / Fold change /veh 11762660_at / RFU VCAN (11757783_s_at) / Fold change /veh VCAN (11757783_s_at) / RFU DDX43 (11728927_at) / Fold change /veh DDX43 (11728927_at) / RFU KRT8 (11758188_x_at) / Fold change /veh KRT8 (11758188_x_at) / RFU NKD1 (11759106_at) / Fold change /veh NKD1 (11759106_at) / RFU SRD5A1 (11742802_a_at) / Fold change /veh SRD5A1 (11742802_a_at) / RFU TPSAB1 /// TPSB2 (11721975_s_at) / Fold change /veh TPSAB1 /// TPSB2 (11721975_s_at) / RFU GSTM3 (11746129_a_at) / Fold change /veh GSTM3 (11746129_a_at) / RFU IL23R (11737362_x_at) / Fold change /veh IL23R (11737362_x_at) / RFU TMEM51 (11727254_a_at) / Fold change /veh TMEM51 (11727254_a_at) / RFU PIWIL2 (11732686_x_at) / Fold change /veh PIWIL2 (11732686_x_at) / RFU ORM1 (11744905_x_at) / Fold change /veh ORM1 (11744905_x_at) / RFU CCDC152 (11743942_at) / Fold change /veh CCDC152 (11743942_at) / RFU ECM1 (11717891_a_at) / Fold change /veh ECM1 (11717891_a_at) / RFU IL23R (11748794_a_at) / Fold change /veh IL23R (11748794_a_at) / RFU TNFAIP8L3 (11732012_x_at) / Fold change /veh TNFAIP8L3 (11732012_x_at) / RFU MBOAT4 (11741988_at) / Fold change /veh MBOAT4 (11741988_at) / RFU 11764193_at / Fold change /veh 11764193_at / RFU TMEM53 (11763286_at) / Fold change /veh TMEM53 (11763286_at) / RFU MAGEB2 (11727129_at) / Fold change /veh MAGEB2 (11727129_at) / RFU TMEM200A (11744735_a_at) / Fold change /veh TMEM200A (11744735_a_at) / RFU CCDC152 (11751479_a_at) / Fold change /veh CCDC152 (11751479_a_at) / RFU FAM211A (11726209_a_at) / Fold change /veh FAM211A (11726209_a_at) / RFU RGS16 (11746705_a_at) / Fold change /veh RGS16 (11746705_a_at) / RFU VCAN (11755009_s_at) / Fold change /veh VCAN (11755009_s_at) / RFU RHOB (11743442_s_at) / Fold change /veh RHOB (11743442_s_at) / RFU RGS16 (11720943_a_at) / Fold change /veh RGS16 (11720943_a_at) / RFU RGS16 (11720944_at) / Fold change /veh RGS16 (11720944_at) / RFU, VPS4B / Fold change vs veh, VPS4B / RFU, CREB1 / Fold change vs veh, CREB1 / RFU, DNAJC13 / Fold change vs veh, DNAJC13 / RFU, GNAQ / Fold change vs veh, GNAQ / RFU, CDK5R1 / Fold change vs veh, CDK5R1 / RFU, ZRANB3 / Fold change vs veh, ZRANB3 / RFU, CUL4A / Fold change vs veh, CUL4A / RFU, CCNY / Fold change vs veh, CCNY / RFU, UFL1 / Fold change vs veh, UFL1 / RFU, COG3 / Fold change vs veh, COG3 / RFU, DIAPH2 / Fold change vs veh, DIAPH2 / RFU, SKA2 / Fold change vs veh, SKA2 / RFU, AFF3 / Fold change vs veh, AFF3 / RFU, LMF1 / Fold change vs veh, LMF1 / RFU, IPO11 / Fold change vs veh, IPO11 / RFU, DFFB / Fold change vs veh, DFFB / RFU, FOXP1 / Fold change vs veh, FOXP1 / RFU, CARD8 / Fold change vs veh, CARD8 / RFU, STRN3 / Fold change vs veh, STRN3 / RFU, ADK / Fold change vs veh, ADK / RFU, RASSF2 / Fold change vs veh, RASSF2 / RFU, WIPF1 / Fold change vs veh, WIPF1 / RFU, LARP1B / Fold change vs veh, LARP1B / RFU, RASA1 / Fold change vs veh, RASA1 / RFU, RB1 / Fold change vs veh, RB1 / RFU, PPFIA1 / Fold change vs veh, PPFIA1 / RFU, MAT2A / Fold change vs veh, MAT2A / RFU, CCT5 / Fold change vs veh, CCT5 / RFU, WDR92 / Fold change vs veh, WDR92 / RFU, CUX1 / Fold change vs veh, CUX1 / RFU, TTC7A / Fold change vs veh, TTC7A / RFU, TMEM135 / Fold change vs veh, TMEM135 / RFU, DEPTOR / Fold change vs veh, DEPTOR / RFU, CPM / Fold change vs veh, CPM / RFU, DNAJB6 / Fold change vs veh, DNAJB6 / RFU, CACNA2D3 / Fold change vs veh, CACNA2D3 / RFU, DTX4 / Fold change vs veh, DTX4 / RFU, TFCP2 / Fold change vs veh, TFCP2 / RFU, GMCL1 /// GMCL1P1 / Fold change vs veh, GMCL1 /// GMCL1P1 / RFU, AEBP2 / Fold change vs veh, AEBP2 / RFU, SNHG1 /// SNORD22 /// SNORD25 /// SNORD26 /// SNORD27 /// SNORD28 /// SNORD29 /// SNORD31 / Fold change vs veh, SNHG1 /// SNORD22 /// SNORD25 /// SNORD26 /// SNORD27 /// SNORD28 /// SNORD29 /// SNORD31 / Fold change (Aza/veh), C12orf56 (ProbeSet 11735607_a_at) / Fold change (ACY-1035/veh), C12orf56 (ProbeSet 11735607_a_at) / Fold change (Aza/veh), FGFR1OP (ProbeSet 11751329_s_at) / Fold change (ACY-1035/veh), FGFR1OP (ProbeSet 11751329_s_at) / Fold change (Aza/veh), VPS36 (ProbeSet 11739960_a_at) / Fold change (ACY-1035/veh), VPS36 (ProbeSet 11739960_a_at) / RFU SYPL1 (11715823_x_at) / Fold change /veh SYPL1 (11715823_x_at) / RFU IGFBP7 (11715501_s_at) / Fold change /veh IGFBP7 (11715501_s_at) / RFU REEP3 (11722064_at) / Fold change /veh REEP3 (11722064_at) / RFU IGLL1 (11728026_x_at) / Fold change /veh IGLL1 (11728026_x_at): dose or concentration left out as unconfirmed", "details": "MV-4-11 cells, 48 hours", "data": [{"smiles": "Nc1ncn([C@@H]2O[C@H](CO)[C@@H](O)[C@H]2O)c(=O)n1", "note": "[azacitidine]", "values": [{"measurement": "Fold change /veh PLEKHG5 (11737974_s_at)", "value": 1.17}]}]}
